Literature values as cited in patent US20230339856A1, “NOVEL PHARMACOLOGICAL CHAPERONE COMPOUNDS OF HUMAN ACID ALPHA-GLUCOSIDASE AND THE THERAPEUTIC USE THEREOF” (UNIVERSITÉ GRENOBLE ALPES, priority 2020, published 2023).

Experiments:
rhGAA = rhGAA (Homo sapiens (Human), UniProt P10253); conditions: literature value, cited from earlier work; for rhGAA ΔTm: pH 4.3, measured at [compound]=10 times the value of Ki
[1] = biological target: α-glucosidase II of the endoplasmic reticulum (GANAB) (Homo sapiens (Human), UniProt Q14697); conditions: literature value; cited from earlier work
α-glucosidase II of the endoplasmic reticulum (GANAB), sequence (Q14697 29-944): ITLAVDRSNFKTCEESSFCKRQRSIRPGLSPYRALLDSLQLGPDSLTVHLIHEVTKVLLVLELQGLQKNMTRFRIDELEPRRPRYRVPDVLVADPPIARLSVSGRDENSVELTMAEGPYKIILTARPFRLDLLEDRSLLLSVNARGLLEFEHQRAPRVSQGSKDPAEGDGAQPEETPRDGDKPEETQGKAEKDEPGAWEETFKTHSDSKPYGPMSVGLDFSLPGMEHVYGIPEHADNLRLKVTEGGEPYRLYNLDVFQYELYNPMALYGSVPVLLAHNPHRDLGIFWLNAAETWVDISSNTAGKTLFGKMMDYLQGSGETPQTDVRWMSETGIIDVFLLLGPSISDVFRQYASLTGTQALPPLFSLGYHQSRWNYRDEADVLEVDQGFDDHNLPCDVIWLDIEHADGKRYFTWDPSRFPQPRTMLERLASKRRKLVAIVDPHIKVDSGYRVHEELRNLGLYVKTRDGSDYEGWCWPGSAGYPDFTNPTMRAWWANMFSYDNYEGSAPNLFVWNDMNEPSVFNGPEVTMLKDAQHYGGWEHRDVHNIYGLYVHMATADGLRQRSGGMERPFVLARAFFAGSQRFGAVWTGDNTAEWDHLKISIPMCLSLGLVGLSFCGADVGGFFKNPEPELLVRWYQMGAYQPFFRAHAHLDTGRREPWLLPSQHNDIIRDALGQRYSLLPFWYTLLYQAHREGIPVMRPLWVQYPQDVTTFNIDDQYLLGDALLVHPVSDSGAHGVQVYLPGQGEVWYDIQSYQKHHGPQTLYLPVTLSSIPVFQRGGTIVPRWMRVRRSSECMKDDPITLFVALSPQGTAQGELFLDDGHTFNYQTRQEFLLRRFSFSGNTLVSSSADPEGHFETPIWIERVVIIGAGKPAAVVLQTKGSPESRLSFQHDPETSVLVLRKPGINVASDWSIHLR
α-glucosidase II of the endoplasmic reticulum (GANAB), sequence (P14314 15-528 partner): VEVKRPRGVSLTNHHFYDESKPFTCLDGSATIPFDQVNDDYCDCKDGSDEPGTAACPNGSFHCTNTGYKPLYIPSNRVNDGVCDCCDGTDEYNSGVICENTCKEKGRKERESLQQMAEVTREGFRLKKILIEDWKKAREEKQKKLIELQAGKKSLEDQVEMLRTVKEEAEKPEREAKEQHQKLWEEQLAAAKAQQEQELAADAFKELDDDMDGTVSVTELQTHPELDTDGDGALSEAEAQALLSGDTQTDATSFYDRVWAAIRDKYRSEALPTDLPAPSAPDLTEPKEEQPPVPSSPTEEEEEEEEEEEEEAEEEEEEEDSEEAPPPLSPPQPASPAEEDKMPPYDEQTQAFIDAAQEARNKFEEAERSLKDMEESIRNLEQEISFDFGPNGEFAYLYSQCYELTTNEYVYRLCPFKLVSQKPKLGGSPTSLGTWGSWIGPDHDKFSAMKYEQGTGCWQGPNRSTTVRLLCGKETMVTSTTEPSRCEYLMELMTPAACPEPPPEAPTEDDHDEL

Row | Structure (SMILES) | rhGAA ΔTm (rhGAA) | rhGAA ΔTm at pH 7.4 (rhGAA) | IC50 [1]
1 | CCCCN1C[C@H](O)[C@@H](O)[C@H](O)[C@H]1CO [NB-DNJ] | 6.2 (pH 4.3)*^b ° C. | 12^d^ ° C. | 15 µM
2 | OC[C@H]1NC[C@H](O)[C@@H](O)[C@@H]1O [DNJ, deoxynojirimycin] | 2.7 (pH 4.3)*^b ° C. | 15^c^ ° C. | –
